In patent US8063221B2, “Aminoquinolones as GSK-3 inhibitors” (Kyorin Pharmaceutical Co., Ltd., priority 2006, dated 2011) one finds IC50 and MIC data, which are given here for 19 compounds.

Each structure is given as a SMILES string. Values after ≈ are worked out from the molar mass of the structure shown. Like-named read-outs stand apart in the source and are kept apart here.

The target in assay [1] is T1, recombinant full-length human GSK3β (Homo sapiens, UniProt P49841).
T1 construct: recombinant full-length human GSK3β (Upstate); purchased Upstate
T1 sequence (P49841 whole entry): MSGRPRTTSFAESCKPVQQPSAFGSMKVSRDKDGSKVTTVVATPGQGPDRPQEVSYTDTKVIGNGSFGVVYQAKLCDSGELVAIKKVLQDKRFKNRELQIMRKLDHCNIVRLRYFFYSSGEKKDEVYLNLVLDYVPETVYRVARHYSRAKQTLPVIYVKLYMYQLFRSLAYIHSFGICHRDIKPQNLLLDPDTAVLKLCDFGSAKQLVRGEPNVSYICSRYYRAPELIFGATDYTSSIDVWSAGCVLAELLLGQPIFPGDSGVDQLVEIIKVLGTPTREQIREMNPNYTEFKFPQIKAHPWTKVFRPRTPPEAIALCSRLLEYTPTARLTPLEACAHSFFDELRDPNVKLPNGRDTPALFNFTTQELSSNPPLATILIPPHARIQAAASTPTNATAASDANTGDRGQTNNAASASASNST
Briefly: Luciferase-coupled cell-free GSK3β kinase assay. Type of assay: biochemical. How it is done: For compounds in Tables 1 and 2, IC50 (μM) for GSK3β enzyme in cell free assay is provided as follows:
Luciferase-Coupled Protein Kinase Assays
All coupled-luciferase assays are performed by using a brief incubation with firefly luciferase (Promega) after completion of the kinase assay. KinaseGlo Plus is used for reading kinase reactions with ATP>10 μM, KinaseGlo for ATP <10 μM. The assay volume in a 384-well plate for the kinase reaction is 30 microliters.
10-25 ng of recombinant full-length human GSK3β (Upstate) is incubated in the presence or absence of compound at varying concentrations for 1 hour at 30 degrees Celsius in 20 mM MOPS, pH 7.0, 10 mM magnesium acetate, 0.2 mM EDTA, 2 mM EGTA, 30 mM magnesium chloride, 62.5 μM phospho-glycogen synthase peptide-2, 5 μM ATP, 10 mM β-glycerol phosphate, 1 mM sodium orthovanadate and 1 mM dithiothreitol. Proceed to KinaseGlo luciferase reaction (see below).
Following the completion of the kinase reaction an equal volume of KinaseGlo or KinaseGlo Plus luciferase reagent (Promega) is added and the luminescence read using a luminescence plate reader within 5-10 minutes. Compound activity is expressed as % inhibition relative to maximal inhibition observed at the maximal dose and IC50 values then calculated using curve fitting software (GraphPad Prizm).

Another assay relates to E. coli, ATCC8739. Briefly: Antibacterial activity (MIC), E. coli. Conditions: Escherichia coli. Format: cell-based. The text has this: (§1) As used herein, a minimum inhibitory concentration (MIC) for bacterial growth assay is the lowest level of a compound needed to cause an inhibition to bacterial growth in culture medium. In certain embodiments, the antibacterial activity of compounds herein, measured as MIC.
(§2) In certain embodiments, GSK3 inhibitors provided herein are substantially free of antibacterial activity or having very low antibacterial activity. The antibacterial activity can be measured by methods known in the art by estimating a minimum inhibitory concentration (MIC) for test compounds. A MIC is the lowest level of a compound needed to cause an inhibition to bacterial growth in a culture medium. […] (Clinical and Laboratory Standards Institute. Methods for Dilution Antimicrobial Susceptibility Tests for Bacteria That Grow Aerobically; Approved Standard-Sixth Edition: CLSI document […]. CLSI, Wayne, Pa. (2003))
(§3) Antibacterial activity for E. coli, ATCC8739 andS. aureus Smith expressed as MIC (μM) is provided as follows: […]

Another assay relates to S. aureus Smith. Briefly: Antibacterial activity (MIC), S. aureus. Format: cell-based. The note with it: Staphylococcus aureus.
Description: as §1, §2, §3

[2] abbreviates: ATCC8739, Table 1, E. coli ATCC8739, read-out: Antibacterial MIC (μM) E.Coli.
Setting [3] is: Table 1, read-out: Antibacterial MIC (μM) S. aureus Smith.
Setting [4] is: ATCC8739, Table 2, E. coli ATCC8739, read-out: Antimicrobial MIC [μM] E. Coli.
Where [5] appears, read: Table 2, S. aureus Smith, read-out: Antimicrobial MIC [μM] S. aureus.

In general, IC50 refers to the concentration that gives 50% inhibition. The MIC is the smallest concentration in the dilution series that meets the test's criterion for growth inhibition. `Nc1c(F)c(NCCCc2ccccc2)c(F)c2c1c(=O)ccn2C1CC1` [compound 13]: the IC50 in assay [1] (Table 1) was in the range of 100 to 500 nM. The MIC in the assay on E. coli, ATCC8739 (setting [2]) is 10 to 50 µM (≈ 3.69 to 18.5 µg/mL); in the assay with S. aureus Smith (setting [3]), 10 to 50 µM (≈ 3.69 to 18.5 µg/mL).
As to `CC1COc2c(NCCNc3cccc(F)n3)c(F)c(N)c3c(=O)c(C(=O)O)cn1c23` (stereo not drawn) [compound 14], the IC50 in assay [1] (Table 2) is below 100 nM. The MIC in the assay on E. coli, ATCC8739 (setting [4]) lay in the range of 10 to 50 µM (≈ 4.31 to 21.6 µg/mL); in the assay on S. aureus Smith (setting [5]) it was 0.5 to 10 µM (≈ 0.216 to 4.31 µg/mL).
Consider `CC1COc2c(NCCNc3cc(F)cc(F)n3)c(F)c(N)c3c(=O)c(C(=O)O)cn1c23` (stereo not drawn) [compound 15], for which, in assay [1] (Table 2), the IC50 was below 100 nM. In addition, the MIC with E. coli, ATCC8739 (setting [4]) lay in the range of 0.5 to 10 µM (≈ 0.225 to 4.49 µg/mL); in the assay with S. aureus Smith (setting [5]), 0.5 to 10 µM (≈ 0.225 to 4.49 µg/mL).
`Nc1c(F)c(NCCNc2ccccn2)c(F)c2c1c(=O)ccn2C1CC1` [compound 15]: the IC50 in assay [1] (Table 1) fell in the range of 100 to 500 nM. Besides, the MIC is above 50 µM in the assay on E. coli, ATCC8739 (setting [2]) and above 50 µM in the assay on S. aureus Smith (setting [3]).
On to `CC1(C)COc2c(NCCNc3ccccn3)c(F)c(N)c3c(=O)c(C(=O)O)cn1c23` [compound 16], for which the IC50 in assay [1] (Table 2) is below 100 nM. For the same compound, the MIC in the assay on E. coli, ATCC8739 (setting [4]) is above 50 µM; in the assay with S. aureus Smith (setting [5]), above 50 µM.
For `Nc1c(F)c(NCCc2ccc(O)cc2)c(F)c2c1c(=O)c(C(=O)O)cn2C1CC1` [compound 16], the IC50 in assay [1] (Table 1) lay in the range of 500 to 1000 nM. The MIC in the assay on E. coli, ATCC8739 (setting [2]) is 0.5 to 10 µM (≈ 0.208 to 4.15 µg/mL); with S. aureus Smith (setting [3]), below 0.5 µM.
Turning to `CC(C)OCCCNc1c(F)c(N)c2c(=O)c(C(=O)O)cn(C3CC3)c2c1F` [compound 17], the IC50 in assay [1] (Table 1) is 100 to 500 nM. In addition, the MIC in the assay on E. coli, ATCC8739 (ATCC8739, read-out: Antibacterial MIC (μM) E.Coli) lay in the range of 0.5 to 10 µM (≈ 0.198 to 3.95 µg/mL); in the assay with S. aureus Smith (read-out: Antibacterial MIC (μM) S. aureus Smith), 0.5 to 10 µM (≈ 0.198 to 3.95 µg/mL).
With `C[C@H]1COc2c(NCCCn3cnc4ccccc43)c(F)c(N)c3c(=O)c(C(=O)O)cn1c23` [compound 19], in assay [1] (Table 2), the IC50 was below 100 nM. The MIC in the assay with E. coli, ATCC8739 (setting [4]) was 10 to 50 µM (≈ 4.51 to 22.6 µg/mL); in the assay on S. aureus Smith (setting [5]), 0.5 to 10 µM (≈ 0.226 to 4.51 µg/mL).
As for `Nc1c(F)c(NCCc2ccc(F)cc2F)c(F)c2c1c(=O)c(C(=O)O)cn2C1CC1` [compound 19], the IC50 in assay [1] (Table 1) fell in the range of 100 to 500 nM. Besides, the MIC in the assay with E. coli, ATCC8739 (setting [2]) was in the range of 0.5 to 10 µM (≈ 0.218 to 4.35 µg/mL); in the assay on S. aureus Smith (setting [3]), 0.5 to 10 µM (≈ 0.218 to 4.35 µg/mL).
Regarding `C[C@H]1COc2c(NCCCn3ccnc3)c(F)c(N)c3c(=O)c(C(=O)O)cn1c23` [compound 20], in assay [1] (Table 2), the IC50 lay in the range of 100 to 500 nM. Also, the MIC was 10 to 50 µM (≈ 4.01 to 20.1 µg/mL) in the assay with E. coli, ATCC8739 (setting [4]) and 0.5 to 10 µM (≈ 0.201 to 4.01 µg/mL) in the assay with S. aureus Smith (setting [5]).
`Nc1c(F)c(NCCCCc2ccccc2)c(F)c2c1c(=O)c(C(=O)O)cn2C1CC1` [compound 20]: the IC50 in assay [1] (Table 1) was in the range of 100 to 500 nM. The MIC in the assay on E. coli, ATCC8739 (setting [2]) was in the range of 10 to 50 µM (≈ 4.27 to 21.4 µg/mL); with S. aureus Smith (setting [3]) it was 0.5 to 10 µM (≈ 0.214 to 4.27 µg/mL).
On the same counts, the results for `CC(C)(C)OC(=O)NCCNc1c(F)c(N)c2c(=O)c(C(=O)O)cn(C3CC3)c2c1F` [compound 21] are 500 to 1000 nM, 0.5 to 10 µM (≈ 0.219 to 4.38 µg/mL) and 0.5 to 10 µM (≈ 0.219 to 4.38 µg/mL).
Take `CC(C)OCCCNc1c(F)c(N)c2c(=O)c(C(=O)O)cn3c2c1OC[C@@H]3C` [compound 21]: the IC50 in assay [1] (Table 2) is 100 to 500 nM. Moreover, the MIC in the assay on E. coli, ATCC8739 (setting [4]) was above 50 µM; with S. aureus Smith (setting [5]), 0.5 to 10 µM (≈ 0.197 to 3.93 µg/mL).
On the same counts, the results for `C[C@H]1COc2c(NCCCN3CCCC3=O)c(F)c(N)c3c(=O)c(C(=O)O)cn1c23` [compound 23] are 100 to 500 nM, 0.5 to 10 µM (≈ 0.209 to 4.18 µg/mL) and 0.5 to 10 µM (≈ 0.209 to 4.18 µg/mL).
For the compound `Nc1c(F)c(NCCCn2ccnc2)c(F)c2c1c(=O)c(C(=O)O)cn2C1CC1` [compound 23], in assay [1] (Table 1), the IC50 is below 100 nM. Also, the MIC with E. coli, ATCC8739 (setting [2]) lay in the range of 0.5 to 10 µM (≈ 0.202 to 4.03 µg/mL); in the assay with S. aureus Smith (setting [3]), 0.5 to 10 µM (≈ 0.202 to 4.03 µg/mL).
For `CC1(C)COc2c(NCCNc3ccccn3)c(F)c(N)c3c(=O)c(C(=O)O)cn(c23)C1` [compound 24], the IC50 in assay [1] (Table 2) is 100 to 500 nM. Moreover, the MIC with E. coli, ATCC8739 (setting [4]) was in the range of 0.5 to 10 µM (≈ 0.221 to 4.41 µg/mL); in the assay on S. aureus Smith (setting [5]) it was 0.5 to 10 µM (≈ 0.221 to 4.41 µg/mL).
Regarding `CC1(C)COc2c(NCCCc3ccccc3)c(F)c(N)c3c(=O)c(C(=O)O)cn(c23)C1` [compound 25], in assay [1] (Table 2), the IC50 is below 100 nM. For the same compound, the MIC is 0.5 to 10 µM (≈ 0.22 to 4.39 µg/mL) in the assay with E. coli, ATCC8739 (setting [4]) and 0.5 to 10 µM (≈ 0.22 to 4.39 µg/mL) with S. aureus Smith (setting [5]).
As to `CC1(C)COc2c(NCCCn3ccnc3)c(F)c(N)c3c(=O)c(C(=O)O)cn(c23)C1` [compound 26], the IC50 in assay [1] (Table 2) was below 100 nM. Moreover, the MIC with E. coli, ATCC8739 (setting [4]) fell in the range of 10 to 50 µM (≈ 4.29 to 21.5 µg/mL); with S. aureus Smith (setting [5]), 10 to 50 µM (≈ 4.29 to 21.5 µg/mL).
For the compound `Nc1c(F)c(NCCCn2ccnc2)c(F)c2c1c(=O)ccn2C1CC1` [compound 26], the IC50 in assay [1] (Table 1) lay in the range of 100 to 500 nM. Besides, the MIC was above 50 µM in the assay on E. coli, ATCC8739 (setting [2]) and above 50 µM with S. aureus Smith (setting [3]).
